Results from patent US11117888B2, “Irreversible inhibitors of pyruvate kinase M2 and the use thereof” (China Medical University, priority 2020, dated 2021).

Experiments:
[1] = test system: MDA-MB-231 breast cancer cells; assay: MTT cell viability assay, MDA-MB-231; assay type: cell-based; settings: Homo sapiens; MDA-MB-231, MTT, 24 hours
From the text: (§1) Cell lines, cell culture, biochemical reagents, and antibodies. MiaPaCa-2, AsPC-1, and Panc-1 human pancreatic cancer cells, MCF-7 and MDA-MB-231 breast cancer cells, SCC4 and SCC2059 oral cancer cells, PC-3 and LNCaP prostate cancer cells, H157, H460, H1975, PC-9 and H1650 lung cancer cells were obtained from the American Type Culture Collection (ATCC, Manassas, Va.). All these cells were maintained in recommended growth medium (RPMI 1640 or DMEM) supplemented with 10% fetal bovine serum (FBS) (Invitrogen, Carlsbad, Calif., USA) and antibiotics at 37° C. in a humidified incubator containing 5% CO2. For SILAC experiments, PC-9 cells were grown in SILAC DMEM medium (Thermo Fisher) supplemented with 10% dialyzed FBS and 100 μg/mL each of unlabeled L-arginine and L-lysine (light medium) or ^13C/^15N stable isotope-labeled L-arginine and L-lysine (heavy medium). […]
(§2) Cell viability assays. Drug effects on cell viability was assessed by 3-(4,5-dimethylthiazol-2-yl)-2,5-diphenyltetrazolium bromide ([…]) assays. […] The medium was then removed from each well and replaced with DMSO to dissolve the reduced MTT dye for subsequent colorimetric measurement of absorbance at 560 nm. Cell viabilities are expressed as percentages of viable cells relative to the corresponding vehicle-treated control group.

PC-9 lung cancer cells = assay: MTT cell viability assay, PC-9; assay type: cell-based; settings: Homo sapiens, PC-9 (mutant EGFR), 24 hours
From the text: as §1, §2

PC-9 xenograft tumors = assay: PC-9 xenograft tumor model in nude mice; assay type: in vivo; settings: 10 mg/kg once daily i.p., 25 days
Method: Pursuant to the above in vitro findings, we evaluated the in vivo tumor-suppressive efficacy of compound 1 in an ectopic PC-9 xenograft tumor model. Athymic nude mice bearing established subcutaneous PC-9 tumors were randomly divided into two groups (n=8 for each group; initial tumor volume: vehicle, 50±11 mm^3; compound 1, 53±6 mm^3), and were treated once daily with compound 1 at 10 mg/kg or vehicle via intraperitoneal injection.
In vivo efficacy study. Athymic nude mice were purchased from the National Laboratory Animal Center (Taipei, Taiwan). To assess the effect of compound 1 on tumor growth in vivo, 1×10^6 PC-9 cells were mixed with Matrigel (BD Biosciences) at a 1:1 ratio and subcutaneously implanted into nude mice (6-week-old, female; a total of 16 mice). After 7 days, mice were treated with once daily vehicle or 10 mg/kg compound 1 in sterile water containing 0.5% methylcellulose (w/v)+0.1% Tween-80 (v/v) (n=8 for each group). Tumors were measured with calipers and volumes were calculated using V=(width^2×length)×0.52. On day 25, tumors were excised and weighed. Tumor specimens were collected, and expression of target proteins in tumor lysates were analyzed by Western blotting, which were quantified by ImageJ. according to a published online procedure. (https://openwetware.org/wiki/Protein_Quantification_Using_ImageJ).

IC50 [1]: 100 nM
IC50 (PC-9 lung cancer cells): 500 nM
Compound: C#CC(=O)Nc1ccc(-n2nc(CCC(=O)NC)cc2-c2ccc(-c3ccc(C(F)(F)F)cc3)cc2)cc1 [compound 1, N-(4-(3-(3-(Methylamino)-3-oxopropyl)-5-(4′-(trifluoromethyl)-[1,1′-biphenyl]-4-yl)-1H-pyrazol-1-yl)phenyl)propiolamide]
expression of PKM2 and binding partners in tumor lysates (PC-9 xenograft tumors; Western blot): significant suppression of the expression of PKM2 and its binding partners EGFR, Stat3, and β-catenin
body weight loss (PC-9 xenograft tumors; relative to control): No appreciable weight loss
tumor growth (tumor volume and tumor weight) (PC-9 xenograft tumors; relative to vehicle): significantly suppressed tumor growth
